Assay results: patent US20260206757A1, “METHODS OF CONTROLLING UNDESIRABLE PLANTS WITH PPO HERBICIDES AND COMBINATIONS IN HERBICIDE TOLERANT CROP PLANTS” (BASF AGRO B.V., priority 2022, published 2026)

What was measured:
Eleusine indica = test: Field experiment, pre-emergence herbicidal activity on bare ground; assay type: in vivo; conditions: ELEIN, preemergence, Saflufenacil 25, Sulfentrazone 210 g ai/ha
Protocol: (§1) Trial Objective: Efficacy of Saflufenacil in tank mix with Flumioxazin applied in pre-emergence of the weeds on bare ground.
(§2) Trial Objective: Efficacy of Saflufenacil in tank mix with Sulfentrazone applied in pre-emergence of the weeds on bare ground.
(§3) On field test sites, natural weed infestation was treated, pre-emergence of the weeds on bare soil or post-emergence of the weeds.
(§4) For the pre-emergence treatment, the active compounds, suspended or emulsified in water, were applied by means of finely distributing nozzles on bare ground.
(§5) In the following experiments, the herbicidal activity for the individual herbicidal compositions (solo and mixture applications) was assessed up to 36 days after treatment (DAT). The assessments for the damage on undesired weeds caused by the chemical compositions was carried out using a scale from 0 to 100%, compared to the untreated control plants. Here, 0 means no damage and 100 means complete destruction of the plants.
(§6) [formula] • where X=effect in percent using herbicide (A) at an application rate a; • Y=effect in percent using herbicide (B) at an application rate b; • E=expected effect (in %) of herbicide (A)+herbicide (B) at application rates a+b.
(§7) The value E corresponds to the effect (plant damage or injury) which is to be expected if the activity of the individual compounds is additive. If the observed effect is higher than the value E calculated according to the Colby equation, a synergistic effect is present.

Urochloa texana = test: as above; assay type: in vivo; conditions: PANTE, preemergence, Saflufenacil 25, Sulfentrazone 210 g ai/ha
Protocol: as §1, §2, §3, §4, §5, §6, §7

Convolvulus arvensis = test: Greenhouse experiment, post emergence herbicidal activity; assay type: in vivo; conditions: CONAR
Protocol: (§8) For the post emergence treatment, the plants were first grown to the 2 to 4 leaf stage (GS 12/14). The plants were cultivated due to their individual requirements at 10-25° C. and 20-35° C. The plants were irrigated as required.
(§9) Here, the herbicidal compositions were suspended or emulsified in water as distribution medium and sprayed using finely distributing nozzles. 1% methylated seed oil (MSO) has been added as adjuvant to each of the solo and mixture treatments.
(§10) In the greenhouse experiments, the herbicidal activity for the individual herbicidal compositions (solo and mixture applications) was assessed 20/21 days after treatment (DAT).
(§11) The evaluation for the damage on undesired weeds caused by the chemical compositions was carried out using a scale from 0 to 100%, compared to the untreated control plants. Here, 0 means no damage and 100 means complete destruction of the plants.

Matricaria chamomilla = test: as above; assay type: in vivo; conditions: MATCH
Protocol: as §8, §9, §10, §11

Papaver rhoeas = test: as above; assay type: in vivo; conditions: PAPRH
Protocol: as §8, §9, §10, §11

Setaria viridis = test: as above; assay type: in vivo; conditions: SETVI
Protocol: as §8, §9, §10, §11

Sonchus arvensis = test: as above; assay type: in vivo; conditions: SONAR
Protocol: as §8, §9, §10, §11

HELAN Pacino = test: Greenhouse experiment, crop safety of sunflower; assay type: in vivo, Helianthus annuus; conditions: scale 0 to 100%
Protocol: as §8, §9, §10, §11

HELAN w F(383)I = test: Greenhouse experiment, crop safety of PPO inhibitor tolerant sunflower; assay type: in vivo, Helianthus annuus; conditions: scale 0 to 100%
Protocol: as §8, §9, §10, §11

Abutilon theophrasti = test: Greenhouse experiment, post emergence herbicidal activity; assay type: in vivo; conditions: ABUTH
Protocol: as §8, §9, §10, §11

Chenopodium album = test: as above; assay type: in vivo; conditions: CHEAL
Protocol: as §8, §9, §10, §11

Echinochloa crus-galli = test: as above; assay type: in vivo; conditions: ECHCG
Protocol: as §8, §9, §10, §11

Solanum nigrum = test: as above; assay type: in vivo; conditions: SOLNI, BBCH 12-14, Flumioxazin 1, Fomesafen 123 g ai/ha
Protocol: as §8, §9, §10, §11

Ambrosia artemisiifolia = test: as above; assay type: in vivo; conditions: AMBEL
Protocol: as §8, §9, §10, §11

Mercuralis annua = test: as above; assay type: in vivo; conditions: MERAN
Protocol: as §8, §9, §10, §11

Polygonum aviculare = test: as above; assay type: in vivo; conditions: POLAV, BBCH 12-14, Flumioxazin 4, Bifenox 168 g ai/ha
Protocol: as §8, §9, §10, §11

Portulaca oleracea = test: as above; assay type: in vivo; conditions: POROL, BBCH 12-14, Flumioxazin 4, Bifenox 168 g ai/ha
Protocol: as §8, §9, §10, §11

Sorghum halepense = test: as above; assay type: in vivo; conditions: SORHA, BBCH 12-14, Saflufenacil 4, Bifenox 168 g ai/ha
Protocol: as §8, §9, §10, §11

Hibiscus trionum = test: as above; assay type: in vivo; conditions: HIBTR, BBCH 12-14, Flumioxazin 0.5, Imazamox 10 g ai/ha
Protocol: as §8, §9, §10, §11

[1] = BBCH 12-14, Flumioxazin 0.5, Halauxifen 1 g ai/ha
[2] = BBCH 12-14, Flumioxazin 2, Halauxifen 1 g ai/ha
[3] = BBCH 12-14, Flumioxazin 2, Fomesafen 123 g ai/ha
[4] = BBCH 12-14, Saflufenacil 1, Bifenox 168 g ai/ha
[5] = BBCH 12-14, Saflufenacil 0.5, Bifenox 168 g ai/ha
[6] = BBCH 12-14, Flumioxazin 0.5, Bifenox 168 g ai/ha
[7] = BBCH 12-14, Saflufenacil 1, Imazamox 10 g ai/ha

For `Cc1nn(-c2cc(NS(C)(=O)=O)c(Cl)cc2Cl)c(=O)n1C(F)F` [Sulfentrazone, N-{2,4-Dichloro-5-[4-(difluoromethyl)-3-methyl-5-oxo-4,5-dihydro-1H-1,2,4-triazol-1-yl]phenyl}methanesulfonamide], the “% Herbicidal activity” value (Eleusine indica) was 80% and the “% Herbicidal activity” value (Urochloa texana) was 45%.
With `COc1c(Cl)ccc(-c2cc(N)c(Cl)c(C(=O)O)n2)c1F` [Halauxifen] the “% Herbicidal activity” value (Convolvulus arvensis; [1]) was 60%, the “% Herbicidal activity” value (Convolvulus arvensis; BBCH 12-14, Saflufenacil 0.5, Halauxifen 1 g ai/ha) was 70% and the “% Herbicidal activity” value (Matricaria chamomilla; [2]) was 5%. For the same molecule, the “% Herbicidal activity” value (Matricaria chamomilla; BBCH 12-14, Saflufenacil 2, Halauxifen 1 g ai/ha) was 65%, the “% Herbicidal activity” value (Papaver rhoeas; [1]) was 95% and the “% Herbicidal activity” value (Setaria viridis; [1]) was 70%. For the same molecule, the “% Herbicidal activity” value (Sonchus arvensis; [2]) was 65%, the “Observed crop damage 21 days after treatment” value (“Observed crop damage 21 days” below) (HELAN Pacino; [1]) was 5% and the “Observed crop damage 21 days” value (HELAN w F(383)I; [1]) was 15%.
For `CS(=O)(=O)NC(=O)c1cc(Oc2ccc(C(F)(F)F)cc2Cl)ccc1[N+](=O)[O-]` [Fomesafen, 5-[2-Chloro-4-(trifluoromethyl)phenoxy]-N-(methanesulfonyl)-2-nitrobenzamide], the “% Herbicidal activity” value (Abutilon theophrasti; BBCH 12-14, Saflufenacil 2, Fomesafen 1 g ai/ha) was 94%, the “% Herbicidal activity” value (Chenopodium album; [3]) was 80% and the “% Herbicidal activity” value (Convolvulus arvensis; BBCH 12-14, Flumioxazin 0.5, Fomesafen 123 g ai/ha) was 70%. For the same molecule, the “% Herbicidal activity” value (Echinochloa crus-galli; [3]) was 85%, the “% Herbicidal activity” value (Echinochloa crus-galli; BBCH 12-14, Saflufenacil 4, Fomesafen 123 g ai/ha) was 95% and the “% Herbicidal activity” value (Matricaria chamomilla; BBCH 12-14, Flumioxazin 1, Fomesafen 123 g ai/ha) was 85%. The “% Herbicidal activity” value (Solanum nigrum) was 90%.
In the case of `COC(=O)c1cc(Oc2ccc(Cl)cc2Cl)ccc1[N+](=O)[O-]` [Bifenox, Methyl 5-(2,4-dichlorophenoxy)-2-nitrobenzoate], the “% Herbicidal activity” value (Abutilon theophrasti; BBCH 12-14, Flumioxazin 2, Bifenox 168 g ai/ha) is reported as 55%, the “% Herbicidal activity” value (Abutilon theophrasti; [4]) is reported as 80% and the “% Herbicidal activity” value (Ambrosia artemisiifolia; [4]) is reported as 60%. For the same molecule, the “% Herbicidal activity” value (Chenopodium album; BBCH 12-14, Flumioxazin 1, Bifenox 168 g ai/ha) was 20%, the “% Herbicidal activity” value (Convolvulus arvensis; [4]) was 75% and the “% Herbicidal activity” value (Mercuralis annua; [5]) was 55%. The “% Herbicidal activity” value (Papaver rhoeas; [6]) was 10%, the “% Herbicidal activity” value (Papaver rhoeas; [5]) was 5% and the “% Herbicidal activity” value (Polygonum aviculare) was 20%. The “% Herbicidal activity” value (Portulaca oleracea) was 10%, the “% Herbicidal activity” value (Sonchus arvensis; [6]) was 30% and the “% Herbicidal activity” value (Sorghum halepense) was 10%. The “Observed crop damage 21 days” value (HELAN Pacino; [6]) was 15% and the “Observed crop damage 21 days” value (HELAN w F(383)I; [6]) was 5%.
`COCc1cnc(C2=NC(C)(C(C)C)C(=O)N2)c(C(=O)O)c1` (stereo not drawn) [Imazamox, 5-(methoxymethyl)-2-(4-methyl-5-oxo-4-propan-2-yl-1H-imidazol-2-yl)pyridine-3-carboxylic acid] was tested, and the “% Herbicidal activity” value (Abutilon theophrasti; BBCH 12-14, Flumioxazin 1, Imazamox 10 g ai/ha) was 84%, the “% Herbicidal activity” value (Ambrosia artemisiifolia; BBCH 12-14, Flumioxazin 4, Imazamox 10 g ai/ha) was 85% and the “% Herbicidal activity” value (Ambrosia artemisiifolia; [7]) was 75%. For the same molecule, the “% Herbicidal activity” value (Hibiscus trionum) was 65%, the “% Herbicidal activity” value (Matricaria chamomilla; [7]) was 35% and the “% Herbicidal activity” value (Mercuralis annua; BBCH 12-14, Flumioxazin 0.5, Imazamox 10 g ai/ha) was 30%. For the same molecule, the “% Herbicidal activity” value (Setaria viridis; BBCH 12-14, Saflufenacil 0.5, Imazamox 10 g ai/ha) was 75%.
